Reference: patent US7138361B2, “Herbicidal heterocycles” (E. I. du Pont de Nemours and Company, priority 2000, dated 2006)

Legend:
Format in all cases: in vivo
[1] = tested on: barnyardgrass (Echinochloa crus-galli); test: Test B flooded paddy test; details: Rate 1000 g/ha, scale of 0 to 100 where 0 is no effect and 100 is complete control, visually evaluated after 13 to 15 days
In short: (§1)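 Treatment: formulated chemical applied to flooded paddy plants at 2-leaf stage. Hold: greenhouse, 13–15 days. Scoring: visual comparison to controls, 0 (no effect) to 100 (complete control).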

rice (Oryza saliva) [2] = test: Test B flooded paddy test; details: Rate 1000 g/ha, scale of 0 to 100 where 0 is no effect and 100 is complete control, visually evaluated after 13 to 15 days
In short: as §1

[3] = tested on: duck salad (Heteranthera limosa); test: Test B flooded paddy test; details: Rate 1000 g/ha, scale of 0 to 100 where 0 is no effect and 100 is complete control, visually evaluated after 13 to 15 days
In short: as §1

[4] = tested on: smallflower flatsedge (Cyperus difformis); test: Test B flooded paddy test; details: Rate 1000 g/ha, scale of 0 to 100 where 0 is no effect and 100 is complete control, visually evaluated after 13 to 15 days
In short: as §1

[5] = tested on: barnyardgrass (Echinochloa crus-galli); test: Test B postemergence; details: 13 to 15 days
In short: (§2)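 Ratings on a 0 to 100 visual scale (100 complete control) compare treated plants with controls 13 to 15 days after application. Treatments were pre- or postemergence sprays of compound in non-phytotoxic solvent with surfactant.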

[6] = tested on: velvetleaf (Abutilon theophrasti); test: Test B postemergence; details: 13 to 15 days
In short: as §2

[7] = tested on: giant foxtail (Setaria faberii); test: Test B postemergence; details: 13 to 15 days
In short: as §2

[8] = tested on: cocklebur (Xanthium strumarium); test: Test B postemergence; details: 13 to 15 days
In short: as §2

[9] = tested on: blackgrass (Alopecurus myosuroides); test: Test B postemergence; details: 13 to 15 days
In short: as §2

wild oat (Avena fatua) = test: Test B postemergence; details: 13 to 15 days
In short: as §2

[10] = tested on: pigweed (Amaranthus retroflexus); test: Test B postemergence; details: 13 to 15 days
In short: as §2

[11] = tested on: lambsquarters (Chenopodium album); test: Test B postemergence; details: 13 to 15 days
In short: as §2

corn (Zea mays) [12] = test: Test B postemergence; details: 13 to 15 days
In short: as §2

[13] = tested on: morning glory (Ipomoea hederacea); test: Test B postemergence; details: 13 to 15 days
In short: as §2

[14] = tested on: Surinam grass (Brachiaria decumbens); test: Test B postemergence; details: 13 to 15 days
In short: as §2

[15] = tested on: crabgrass (Digitaria sanguinalis); test: Test B postemergence; details: 13 to 15 days
In short: as §2

[16] = tested on: wheat (Triticum aestivum); test: Test B postemergence; details: 13 to 15 days
In short: as §2

[17] = tested on: barnyardgrass (Echinochloa crus-galli); test: Test B preemergence; details: scale 0 to 100, 0 no effect, 100 complete control
In short: as §2

[18] = tested on: velvetleaf (Abutilon theophrasti); test: Test B preemergence; details: scale 0 to 100, 0 no effect, 100 complete control
In short: as §2

[19] = tested on: giant foxtail (Setaria faberii); test: Test B preemergence; details: scale 0 to 100, 0 no effect, 100 complete control
In short: as §2

[20] = tested on: cocklebur (Xanthium strumarium); test: Test B preemergence; details: scale 0 to 100, 0 no effect, 100 complete control
In short: as §2

rice (Oryza saliva) [21] = test: Test B preemergence; details: scale 0 to 100, 0 no effect, 100 complete control
In short: as §2

[22] = tested on: pigweed (Amaranthus retroflexus); test: Test B preemergence; details: scale 0 to 100, 0 no effect, 100 complete control
In short: as §2

[23] = tested on: lambsquarters (Chenopodium album); test: Test B preemergence; details: scale 0 to 100, 0 no effect, 100 complete control
In short: as §2

corn (Zea mays) [24] = test: Test B preemergence; details: scale 0 to 100, 0 no effect, 100 complete control
In short: as §2

[25] = tested on: morning glory (Ipomoea hederacea); test: Test B preemergence; details: scale 0 to 100, 0 no effect, 100 complete control
In short: as §2

[26] = tested on: Surinam grass (Brachiaria decumbens); test: Test B preemergence; details: scale 0 to 100, 0 no effect, 100 complete control
In short: as §2

[27] = tested on: crabgrass (Digitaria sanguinalis); test: Test B preemergence; details: scale 0 to 100, 0 no effect, 100 complete control
In short: as §2

[28] = tested on: barnyardgrass (Echinochloa crus-galli); test: Test C flooded paddy test
In short: (§3)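 Response on a 0-to-100 scale (no effect to complete control) was assessed by eye versus controls. Plants had reached 2 leaves when treated in flooded paddy conditions. The assessment took place after 12–14 days of greenhouse growth.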

rice (Oryza saliva) [29] = test: Test C flooded paddy test
In short: as §3

[30] = tested on: duck salad (Heteranthera limosa); test: Test C flooded paddy test
In short: as §3

[31] = tested on: smallflower flatsedge (Cyperus difformis); test: Test C flooded paddy test; details: for Flatsedge plant response rating: Flooded Paddy, scale 0 to 100, 0 no effect, 100 complete control; for Plant response rating, Flatsedge: flooded paddy test, scale 0 to 100 (0 no effect, 100 complete control)
In short: as §3

[32] = Rate 125 g/ha, scale 0 (no effect) to 100 (complete control)
[33] = Rate 500 g/ha, scale 0 to 100, 0 is no effect, 100 is complete control
[34] = Flooded Paddy, Rate 500 g/ha, scale 0 to 100
[35] = Flooded Paddy, Rate 250 g/ha, scale 0 to 100, 0 no effect, 100 complete control
[36] = flooded paddy test, Rate 62 g/ha, scale 0 to 100 (0 no effect, 100 complete control)
[37] = flooded paddy test, Rate 125 g/ha, scale 0 to 100 (0 no effect, 100 complete control)

Cc1ccn(C2SCN(c3cccc(C(F)(F)F)c3)C2=O)n1 (centres unmarked) [Compound 19]
80: Plant response rating, Ducksalad [3]
20: Plant response rating, Velvetleaf [6, 33] | Plant response rating, Cocklebur [8, 32] | Plant response rating, Cocklebur [8, 33] | Plant response rating, Morningglory [13, 32] | Plant response rating, Crabgrass [15, 33] | Plant response rating, Surinam grass ([26]; Preemergence, Rate 500 g/ha)
10: Plant response rating, Velvetleaf [6, 32] | Plant response rating, Lambsquarters [11, 32] | Plant response rating, Surinam grass [14, 33]
90: Plant response rating, Flatsedge [4]
60: Plant response rating, Barnyardgrass [1] | Plant response rating, Lambsquarters ([23]; Preemergence, Rate 500 g/ha)
0: Plant response rating, Rice (rice (Oryza saliva) [2]) | Plant response rating, Barnyardgrass [5, 32] | Plant response rating, Barnyardgrass [5, 33] | Plant response rating, Foxtail, Giant [7, 32] | Plant response rating, Foxtail, Giant [7, 33] | Plant response rating, Blackgrass [9, 32] | Plant response rating, Blackgrass [9, 33] | Plant response rating, Wild Oat (wild oat (Avena fatua); [32]) | Plant response rating, Wild Oat (wild oat (Avena fatua); [33]) | Plant response rating, Pigweed [10, 32] | Plant response rating, Pigweed [10, 33] | Plant response rating, Corn (corn (Zea mays) [12]; [32]) | Plant response rating, Corn (corn (Zea mays) [12]; [33]) | Plant response rating, Surinam grass [14, 32] | Plant response rating, Crabgrass [15, 32] | Plant response rating, Wheat [16, 32] | Plant response rating, Wheat [16, 33] | Plant response rating, Barnyardgrass ([17]; Preemergence, Rate 500 g/ha) | Plant response rating, Barnyardgrass ([17]; preemergence, Rate 125 g/ha) | Plant response rating, Velvetleaf ([18]; Preemergence, Rate 500 g/ha) | Plant response rating, Velvetleaf ([18]; preemergence, Rate 125 g/ha) | Plant response rating, Foxtail, Giant ([19]; Preemergence, Rate 500 g/ha) | Plant response rating, Foxtail, Giant ([19]; preemergence, Rate 125 g/ha) | Plant response rating, Cocklebur ([20]; Preemergence, Rate 500 g/ha) | Plant response rating, Cocklebur ([20]; preemergence, Rate 125 g/ha) | Plant response rating, Rice (rice (Oryza saliva) [21]; Preemergence, Rate 500 g/ha) | Plant response rating, Rice (rice (Oryza saliva) [21]; preemergence, Rate 125 g/ha) | Plant response rating, Pigweed ([22]; Preemergence, Rate 500 g/ha) | Plant response rating, Pigweed ([22]; preemergence, Rate 125 g/ha) | Plant response rating, Lambsquarters ([23]; preemergence, Rate 125 g/ha) | Plant response rating, Corn (corn (Zea mays) [24]; Preemergence, Rate 500 g/ha) | Plant response rating, Corn (corn (Zea mays) [24]; preemergence, Rate 125 g/ha) | Plant response rating, Morningglory ([25]; Preemergence, Rate 500 g/ha) | Plant response rating, Morningglory ([25]; preemergence, Rate 125 g/ha) | Plant response rating, Surinam grass ([26]; preemergence, Rate 125 g/ha) | Plant response rating, Crabgrass ([27]; Preemergence, Rate 500 g/ha) | Plant response rating, Crabgrass ([27]; preemergence, Rate 125 g/ha) | Plant response rating, Barnyardgrass [28, 34] | Barnyardgrass plant response rating [28, 35] | Plant response rating, Barnyardgrass [28, 36] | Plant response rating, Barnyardgrass [28, 37] | Plant response rating, Rice (rice (Oryza saliva) [29]; [34]) | Rice plant response rating (rice (Oryza saliva) [29]; [35]) | Plant response rating, Rice (rice (Oryza saliva) [29]; [36]) | Plant response rating, Rice (rice (Oryza saliva) [29]; [37]) | Plant response rating, Ducksalad [30, 34] | Ducksalad plant response rating [30, 35] | Plant response rating, Ducksalad [30, 36] | Plant response rating, Ducksalad [30, 37] | Flatsedge plant response rating ([31]; Rate 250 g/ha) | Plant response rating, Flatsedge ([31]; Rate 62 g/ha) | Plant response rating, Flatsedge ([31]; Rate 125 g/ha)
70: Plant response rating, Lambsquarters [11, 33]
30: Plant response rating, Morningglory [13, 33] | Flatsedge plant response rating ([31]; Rate 500 g/ha)
